Reference: US6710044B2, “Technical field” (NeuroSearch A/S, priority 1996, dated 2004)
Where “and” joins values, the source holds several entries; their conditions need not be identical. Equal entries are not always repeated.

| melting point | SMILES |
| --- | --- |
| 131 to 132 °C | CN1CCN(c2cccc(-n3cnc4cc(-c5ccccc5)ccc43)c2)CC1 |
| 158 to 160 °C | CN1CCCC(c2cccc(-n3cnc4cc(C#N)ccc43)c2)C1.Cl (centres unmarked) |
| 119 to 120 °C | CCON=C(CC1CCN(c2cccc(-n3cnc4cc(C(C)=O)ccc43)c2)CC1)OCC [compound 5d2, 5-Acetyl-1-(3-(4-(ethoxycarbonylmethyl)piperidin-1-yl)phenyl)benzimidazole O-ethyl oxime] |
| 180 to 182 °C | CCOC(=O)Cc1ccc2c(c1)ncn2-c1cccc(N2CCN(C)CC2)c1.Cl |
| 177 to 179 °C | CN1CCN(c2cccc(-n3cnc4cc(C#N)ccc43)c2)CC1 |
| 195 to 197 °C | Cl.O=C(OCc1cccnc1)c1cccc(-n2cnc3cc(-c4ccccc4)ccc32)c1 |
| 104 to 106 °C | COC(=O)CON=C(C)c1ccc2c(c1)ncn2-c1cccc(C2CCCN(C)C2)c1 (centres unmarked) |
| 224 to 227 °C | CN1CCN(c2cccc(-n3cnc4cc(C=NO)ccc43)c2)CC1 |
| 240 to 241 °C | CC(=O)c1ccc2c(c1)ncn2-c1cccc(N2CCN(C(C)=NO)CC2)c1 |
| 83 to 84 °C | CC(=O)c1ccc2c(c1)ncn2-c1cccc(C(=NOC(C)C)OC2CCCN(C)C2)c1 (centres unmarked) |
| 42 to 44 °C | CN1CCCC(c2cccc(-n3cnc4cc(-c5ccccc5)ccc43)c2)C1 (centres unmarked) |
| 165 to 169 °C | CC(=NOC(C)C)c1ccc2c(c1)ncn2-c1cccc(N2CCN(CCO)CC2)c1.Cl |
| 118 to 120 °C | CCON=C(C)c1ccc2c(c1)ncn2-c1cccc(N2CCCC2)c1 |
| 129 to 130 °C | CN1CCN(c2cccc(-n3cnc4cc(-c5ccoc5)ccc43)c2)CC1 |
| 88 to 89 °C | CCON=C(C)c1ccc2c(c1)ncn2-c1cccc(N2CCCCC2)c1 |
| 48 to 55 °C | CC(=NOC(C)C)c1ccc2c(c1)ncn2-c1cccc(C2CCCN(C)C2)c1.Cl (centres unmarked) |
| 187 to 188 °C | CN1CCC(OC(=O)c2cccc(-n3cnc4cc(-c5ccccc5)ccc43)c2)CC1.Cl |
| 113 to 116 °C and 113 to 115 °C | COC(=O)C(C)(C)ON=C(C)c1ccc2c(c1)ncn2-c1cccc(C2CCCN(C)C2)c1 (centres unmarked) |
| 106 to 107 °C | CC(=O)c1ccc2c(c1)ncn2-c1cccc(C(=NOC(C)C)OC2CCN(C)CC2)c1 |
| 199 to 201 °C | COC(=O)C(C)(C)ON=Cc1ccc2c(c1)ncn2-c1cccc(N2CCN(C)CC2)c1.Cl |

| melting point | SMILES |
| --- | --- |
| 104 to 106 °C | CC(=O)c1ccc2c(c1)ncn2-c1cccc(C(=NOC(C)C)OCc2ccccn2)c1 [compound 5a3, 5-Acetyl-1-(3-(2-picolyloxycarbonyl)phenyl)benzimidazole O-i-propyl oxime] |
| 107 to 108 °C | CON=Cc1ccc2c(c1)ncn2-c1cccc(N2CCCCC2)c1 |
| 190 to 191 °C | COC(=O)c1cccc(-n2cnc3cc(-c4ccno4)ccc32)c1 |
| 85 to 87 °C | CCOC(=O)C=Cc1ccc2c(c1)ncn2-c1cccc(N2CCCCC2)c1 |
| 131 to 133 °C | COC(=O)C=CN1CCN(c2cccc(-n3cnc4cc(-c5ccoc5)ccc43)c2)CC1 |
| 184 to 190 °C | CN1CCCC(c2cccc(-n3cnc4cc(-c5nc(C6CC6)no5)ccc43)c2)C1.Cl (centres unmarked) |
| 180 to 191 °C | CN1CCCC(OC(=O)c2cccc(-n3cnc4cc(-c5ccccc5)ccc43)c2)C1.Cl (centres unmarked) |
| 87 to 89 °C | CCOC(=O)c1cccc(-n2cnc3cc(-c4ccoc4)ccc32)c1 |
| 128 to 129 °C | CCOC(=O)C(=CN1CCN(c2cccc(-n3cnc4cc(C(C)=O)ccc43)c2)CC1)C(=NOC(C)C)OCC |
| 200 °C | CN1CCCC(c2cccc(-n3cnc4cc(C(C)(C)C)ccc43)c2)C1.Cl (centres unmarked) |
| 119 to 121 °C | COC(=O)c1ccc2c(c1)ncn2-c1cccc(N2CCN(C)CC2)c1 |
| 122 to 123 °C | CCOC(=O)c1cccc(-n2cnc3cc(-c4ccccc4)ccc32)c1 |
| 106 to 108 °C | N#Cc1ccc2c(c1)ncn2-c1cccc(N2CCCCC2)c1 |
| 196 to 200 °C | CCOC(=O)CN1CCN(c2cccc(-n3cnc4cc(C(=O)OCC)ccc43)c2)CC1.Cl |
| 119 to 120 °C | COC(=O)C(C)(C)ON=C(C)N1CCN(c2cccc(-n3cnc4cc(C(C)=O)ccc43)c2)CC1 |
| 155 to 156 °C | CCOC(=O)c1ccc2c(c1)ncn2-c1cccc(N2CCN(C(C)=O)CC2)c1 |
| 154 to 156 °C | CCOC(CN1CCN(c2cccc(-n3cnc4cc(C(C)=O)ccc43)c2)CC1)=NO |
| 127 to 128 °C | CC(C)ON=Cc1ccc2c(c1)ncn2-c1cccc(N2CCCCC2)c1 |
| 86 to 87 °C | CCOC(=O)c1ccc2c(c1)ncn2-c1cccc(N2CCN(C)CC2)c1 |
| 160 to 161 °C | CC(C)OC(=O)c1ccc2c(c1)ncn2-c1cccc(N2CCCCC2)c1 |

| melting point | SMILES |
| --- | --- |
| 213 to 214 °C | ON=Cc1ccc2c(c1)ncn2-c1cccc(N2CCCCC2)c1 |
| 73 to 75 °C | CCOC(=O)CON=C(C)c1ccc2c(c1)ncn2-c1cccc(C2CCCN(C)C2)c1.Cl (centres unmarked) |
| 189 to 191 °C | COC(=O)c1ccc2c(c1)ncn2-c1cccc(C2CN(C(C)=O)CCN2)c1 (centres unmarked) |
| 111 to 113 °C | CN1CCCC(c2cccc(-n3cnc4cc(C(=O)OCC5CC5)ccc43)c2)C1 (centres unmarked) |
| 137 to 139 °C | COC(=O)CON=C(C)N1CCN(c2cccc(-n3cnc4cc(C(C)=O)ccc43)c2)CC1 |
| 62 to 63 °C | CCON=C(C)c1ccc2c(c1)ncn2-c1cccc(N2CCN(C)CC2)c1.Cl |
| 124 to 125 °C | COC(=O)CN1CCN(c2cccc(-n3cnc4cc(-c5ccoc5)ccc43)c2)CC1 |
| 233 to 236 °C | CCOC(=O)c1ccc2c(c1)ncn2-c1cccc(N2CCN(CCO)CC2)c1.Cl |
| 133 to 134 °C | CCOC(=O)C=Cc1ccc2c(c1)ncn2-c1cccc(N2CCN(C)CC2)c1 |
| 110 to 112 °C | CCOC(=O)CN1CCN(c2cccc(-n3cnc4cc(-c5ccoc5)ccc43)c2)CC1 |
| 96 to 97 °C | CN1CCCC(c2cccc(-n3cnc4cc(-c5ccoc5)ccc43)c2)C1 (centres unmarked) |
| 168 to 171 °C | CCOC(=O)c1cccc(-n2cnc3cc(C4CCOC4)ccc32)c1.Cl (centres unmarked) |
| 162 to 164 °C | CC(C)(C)OC(=O)N1CCN(c2cccc(-n3cnc4cc(-c5ccoc5)ccc43)c2)CC1 |
| 138 to 140 °C | COC(=O)C=Cc1ccc2c(c1)ncn2-c1cccc(N2CCN(C)CC2)c1 |
| 110 to 111 °C | CC(C)OC(=O)c1ccc2c(c1)ncn2-c1cccc(N2CCN(C)CC2)c1 |
| 242 to 244 °C | ON=Cc1ccc2c(c1)ncn2-c1cccc(N2CCCC2)c1 |
| 170 to 172 °C | CCCOC(=O)c1ccc2c(c1)ncn2-c1cccc(N2CCCC2)c1 |
| 120 to 122 °C | CCCON=C(CN1CCN(c2cccc(-n3cnc4cc(C(C)=O)ccc43)c2)CC1)OC |
| 160 to 163 °C | CC(=O)c1ccc2c(c1)ncn2-c1cccc(N2CCN(C(C)=NOC(C)C)CC2)c1.Cl |
